In the SangsterLogP compilation one finds logP data, which are given here for 26 compounds.

One data set in a line: method code SF-AQ, from DOI: 10.1016/0003-9861(68)90547-x, PMID: 5677592.
Regarding `OC[C@H]1O[C@@H](Oc2ccc(Cl)cc2)[C@H](O)[C@@H](O)[C@@H]1O`, the logP (in general, a log measure of how a compound divides between an organic and an aqueous phase) stood at 0.26.

A short description of another data set: method code SF-CR, from DOI: 10.1016/0003-9861(68)90547-x, PMID: 5677592.
Take `CC(C)(C)c1cc(OC2OC(CO)C(O)C(O)C2O)cc(C(C)(C)C)c1` (stereo unspecified): the logP worked out at 2.73.

Another data set in a line: method code SF-CR+AS, from DOI: 10.1016/0003-9861(68)90547-x, PMID: 5677592.
The compound `Cc1ccc(C(C)C)c(O[C@@H]2O[C@H](CO)[C@@H](O)[C@H](O)[C@H]2O)c1` registered a logP of 1.07.
The same measure, in the same setting: then `OC[C@H]1OC(OCc2ccccc2)[C@H](O)[C@@H](O)[C@@H]1O` (stereo partly specified), with -0.7.
Still for that read-out and setting: then `Cc1ccccc1O[C@@H]1O[C@H](CO)C(O)[C@H](O)[C@H]1O` (stereo in doubt), with -0.16.
On to `OC[C@H]1O[C@@H](OC2CCCCC2)[C@H](O)[C@@H](O)[C@@H]1O`, for which the logP was -0.63.
On the same count and under the same terms, then `COc1ccc(O[C@@H]2O[C@H](CO)[C@@H](O)[C@H](O)[C@H]2O)cc1`, with -0.73.
In turn, `OC[C@H]1O[C@@H](Oc2ccc(O)cc2)[C@H](O)[C@@H](O)[C@@H]1O` displayed a log partition coefficient (logP) of -1.35.
Same read-out and setting: then `OC[C@H]1O[C@@H](Oc2ccc3ccccc3c2)[C@H](O)[C@@H](O)[C@@H]1O`, with 0.76; and `COc1cccc(O[C@@H]2O[C@H](CO)[C@@H](O)[C@H](O)[C@H]2O)c1`, with -0.52; and `CC(C)(C)c1ccc(O[C@@H]2O[C@H](CO)[C@@H](O)[C@H](O)[C@H]2O)cc1`, with 1.18.
For `Cc1cccc(O[C@@H]2O[C@H](CO)[C@@H](O)[C@H](O)[C@H]2O)c1`, the logP is -0.2.
The same measure, in the same setting: then `OC[C@H]1O[C@@H](Oc2ccccc2I)[C@H](O)[C@@H](O)[C@@H]1O`, with 0.27.
Same read-out and setting: for `OC[C@H]1O[C@@H](Oc2cccc(C(F)(F)F)c2)[C@H](O)[C@@H](O)[C@@H]1O` the value was 0.49.
On the same count and under the same terms, for `COc1ccccc1O[C@@H]1O[C@H](CO)[C@@H](O)[C@H](O)[C@H]1O` the value was -1.04; for `CCc1cccc(O[C@@H]2O[C@H](CO)[C@@H](O)[C@H](O)[C@H]2O)c1`, 0.31.
Compound `OC[C@H]1O[C@@H](Oc2ccccc2)[C@H](O)[C@@H](O)[C@@H]1O` returned a logP of -0.71.
In turn, `Nc1ccccc1O[C@@H]1O[C@H](CO)[C@@H](O)[C@H](O)[C@H]1O` came in with a logP of -1.23.
Turning to `Cc1cc(C)cc(O[C@@H]2O[C@H](CO)[C@@H](O)[C@H](O)[C@H]2O)c1`, the logP was 0.26.
Compound `CC(C)(C)c1cccc(O[C@@H]2O[C@H](CO)[C@@H](O)[C@H](O)[C@H]2O)c1` returned a log partition coefficient (logP) of 1.01.
`CC(C)c1cccc(O[C@@H]2O[C@H](CO)[C@H](O)[C@H](O)[C@H]2O)c1` came in with a logP of 0.65.
Compound `OCc1ccccc1O[C@@H]1O[C@H](CO)[C@@H](O)[C@H](O)[C@H]1O` came in with a logP of -1.22.
On to `OC[C@H]1O[C@@H](Oc2ccc(I)cc2)[C@H](O)[C@@H](O)[C@@H]1O`, for which the logP is 0.75.
As to `Nc1ccc(O[C@@H]2O[C@H](CO)[C@@H](O)[C@H](O)[C@H]2O)cc1`, the logP is -2.67.
Take `O=[N+]([O-])c1ccccc1O[C@@H]1O[C@H](CO)[C@@H](O)[C@H](O)[C@H]1O`: the logP is -0.78.
On the same count and under the same terms, then `Cc1ccc(O[C@@H]2O[C@H](CO)[C@@H](O)[C@H](O)[C@H]2O)cc1`, with -0.16.
